In patent US12016876B2, “Micro-RNAs and compositions comprising same for the treatment and diagnosis of serotonin-, adrenalin-, noradrenalin-, glutamate-, and corticotropin-releasing hormone- associated medical conditions” (Yeda Research and Development Co. Ltd., priority 2011, dated 2024):

Columns and labels:
mice [1] = experiment: Tail suspension test; format: in vivo
Protocol: The tail suspension test was performed in the TSE Tail Suspension Monitor (TSE Systems, Bad Homburg, Germany). Each mouse was taped by the tip of its tail, and suspended from the force sensor for 10 minutes. Time spent immobile and time spent struggling were calculated and recorded by the software based on pre-set thresholds.

miR-135b [2] = experiment: miR-135b levels after antidepressant treatment, real time PCR; settings: for miR-135b levels in the RN: acute or chronic administration, 20 mg/kg i.p.
mice [3] = experiment: Forced swim test; format: in vivo
Protocol: The […] was performed as previously described [Krishnan V and Nestler E J, Nature (2008) 455: 894-902]. In short, the apparatus used was a plastic bucket, 18 cm of diameter, filled with 25° C. water to a depth of 15 cm. Each mouse was placed in the center of the bucket to initiate a 6 minutes video recorded test session. The duration of time spent immobile during the 2-6 minute of testing was automatically scored using Eto Vision XT (Noldus, Wageningen, Netherlands).

miR-135a = miR-135a levels after antidepressant treatment, real time PCR; settings: for miR-135a levels in the RN: acute or chronic administration, 20 mg/kg i.p.
miR-19a = miR-19a levels in PFC after Reboxetine; format: in vivo, mice
Protocol: (§1) Mice received i.p. injection of tricyclic-Imipramine, or SSRI-Fluoxetine, or NRI-Reboxetine (20 mg/kg in saline) or saline.
(§2) These animals will be also tested for anxiety like behavior, locomotor activity and memory performance. Furthermore, the levels of expression of miR-19a and miR-19b are examined in different regions of interest (E.G the hippocampus, amygdala and forebrain) following an acute and chronic systemic treatment with the Noradrenaline reuptake inhibitor Reboxetine in WT mice.

miR-19b = miR-19b levels in PFC after Reboxetine; format: in vivo, mice
Protocol: as §1, §2

Slc6a4 3′UTR = experiment: Luciferase reporter assay, Slc6a4 3′UTR, HEK293T cells; format: cell-based, mouse; settings: for repression of Slc6a4 3′UTR luciferase reporter: miR over-expressing vector vs empty vector, HEK293T; for repression with Slc6a4 3′UTR mutated in miR-135 seed match: mutated 3′UTR lacking miR-135 seed match
Description: (§3) 3′UTR sequences of Slc6a4, Htr1a, MaoA and Tph2 were PCR amplified from mouse genomic DNA, or total brain cDNA. 3′UTR PCR fragments were ligated into pGEM-T easy vector (Promega) according to the manufacturer's guidelines, and further subcloned into a single NotI site at the 3′ end of luciferase in the Psicheck2 reporter plasmid (Promega). Mutated 3′ UTR sequences, lacking miR-135 seed sequences, were synthesized with primers overhangs across the seed match sequence. Cloning orientation was verified by diagnostic cuts and by sequencing.
(§4) HEK293T cells were grown on poly-L-lysine in 48-well format to a 70-85% confluence and transfected using Polyethyleneimine with the following plasmids: 5 ng of Psicheck2-3′UTR plasmid and 215 ng of over-expressing vector for a specific miRNA, or empty-miR-vec over-expression plasmids. 24 hours following transfection cells were lysed and luciferase reporters activity were assayed as previously described [Chen A. et al. Mol Endocrinol (2005) 19: 441-58]. Renilla luciferase values were normalized to control firefly luciferase levels (transcribed from the same vector but not affected by 3′UTR tested) and averaged across six well repetitions per condition.

Htr1a 3′UTR = experiment: Luciferase reporter assay, Htr1a 3′UTR, HEK293T cells; format: cell-based, mouse; settings: for seed matches through which Htr1a 3′UTR is repressed: Htr1a miR-135 seed matches mutated individually or both; for repression of Htr1a 3′UTR luciferase reporter: miR over-expressing vector vs empty vector, HEK293T
Description: as §3, §4
3′UTR sequence of Htr1a was PCR amplified from mouse genomic DNA. 3′UTR PCR fragments were ligated into pGEM-T easy vector (Promega) according to the manufacturer's guidelines, and further subcloned into a single NotI site at the 3′ end of luciferase in the Psicheck2 reporter plasmid (Promega). Cloning orientation was verified by diagnostic cuts and by sequencing.
as §4, with “plasmids:” for “plasmids: 5 ng of”, “Psicheck2-3′UTR plasmid, pre-mmu-miR-182 over-expression in pEGFP” for “Psicheck2-3′UTR”, “plasmid” for “plasmid and 215 ng of over-expressing vector for a specific miRNA,”, “pEGFP plasmid alone (clontech).” for “empty-miR-vec over-expression plasmids.”

miR-135b [4] = experiment: Lentiviral over-expression of miR-135b in RN, real time PCR; settings: lentiviruses over-expressing miR-135b injected into RN, vs control lentiviruses
mice [5] = experiment: Home cage locomotor activity; format: in vivo; settings: lentiviral miR-135b over-expression in RN
Protocol: To control for the possibility of behavioral effects originating from differences in ambulatory movement, locomotor activity of mice was examined over a 48 hours period, which proceeded a few days of habituation. Mice were single housed in specialized home cages and locomotion was measured using the InfraMot system (TSE Systems, Bad Hamburg, Germany).

L1cam 3′UTR = experiment: Luciferase assay, L1cam 3′UTR, N2a cells; format: cell-based
Protocol: (§5) Using a luciferase assay, eleven predicted target genes of miR182, chosen after extensive bioinformatics, were examined (FIG. 27A).
(§6) Similar verification for Dscam and Htr1a with mutated 3′UTR are performed.

miR-182 = miR-182 over-expression lentiviruses in N2a cell line, real time PCR; settings: N2a cells infected with over-expression lentiviruses vs control
Dscam 3′UTR = experiment: Luciferase assay, Dscam 3′UTR, N2a cells; format: cell-based
Description: as §5

Tsnax 3′UTR = experiment: Luciferase assay, Tsnax 3′UTR, N2a cells; format: cell-based
Protocol: as §5, §6

[6] = acute and chronic administration
[7] = chronic administration (18 days)

CNCCC(Oc1ccc(C(F)(F)F)cc1)c1ccccc1 (stereo not drawn) [Fluoxetine] was tested, and the “immobility time, tail suspension test” value (mice [1]; SSRI treatment vs basal, miR135KD and control KD mice) was “decrease in immobility time”, the “miR135b levels in the AMY” value (miR-135b [2]; acute administration) was “upregulated” and the “miR135b levels in the PFC” value (miR-135b [2]; acute administration) was “upregulated”. The “circulating miR-135b levels in plasma” value (miR-135b [2]; [6]) was “no effect”, the “miR-135b levels in the RN” value (miR-135b [2]) was “unaltered” and the “miR135b levels in the AMY” value (miR-135b [2]; chronic administration) was “not by chronic administration”. The “miR135b levels in the PFC” value (miR-135b [2]; chronic administration) was “decreased”, the “immobility time, forced swim test” value (mice [3]; SSRI treatment, miR135KD and control KD mice) was “reduced” and the “miR135a levels in the AMY” value (miR-135a; acute administration) was “upregulated”. For the same molecule, the “miR135a levels in the PFC” value (miR-135a; acute administration) was “not significantly altered”, the “circulating miR-135a levels in plasma” value (miR-135a; [6]) was “robust decrease” and the “miR-135a levels in the RN” value (miR-135a) was “robust increase”. For the same molecule, the “miR135a levels in the AMY” value (miR-135a; chronic administration) was “not by chronic administration” and the “miR135a levels in the PFC” value (miR-135a; chronic administration) was “decreased”.

For CN(C)CCCN1c2ccccc2CCc2ccccc21 [Imipramine], the “miR-135b levels in the RN” value (miR-135b [2]) was “increased” and the “miR-135a levels in the RN” value (miR-135a) was “increased”.

CCOc1ccccc1OC(c1ccccc1)C1CNCCO1 (stereo not drawn) [Reboxetine] was tested, and the “miR-19a levels in the PFC” value (miR-19a; acute administration (once)) was “down regulated”, the “miR-19a levels in the PFC” value (miR-19a; [7]) was “upregulated” and the “miR-19b levels in the PFC” value (miR-19b; acute administration (once)) was “down regulated”. The “miR-19b levels in the PFC” value (miR-19b; [7]) was “upregulated”, the “miR135b levels in the AMY” value (miR-135b [2]; acute administration) was “upregulated” and the “miR135b levels in the PFC” value (miR-135b [2]; acute administration) was “upregulated”. For the same molecule, the “miR-135b levels in the RN” value (miR-135b [2]) was “unaltered”, the “miR135b levels in the AMY” value (miR-135b [2]; chronic administration) was “not by chronic administration” and the “miR135a levels in the AMY” value (miR-135a; acute administration) was “upregulated”. The “miR135a levels in the PFC” value (miR-135a; acute administration) was “not significantly altered”, the “miR-135a levels in the RN” value (miR-135a) was “not” and the “miR135a levels in the AMY” value (miR-135a; chronic administration) was “not by chronic administration”.

In the case of “miR-135a: microRNA over-expressed from a vector; SEQ ID NO: 24 (AGUGUAUCCUUAUUUUUCGGUAU; listed as Mus musculus)”, the “repression of Slc6a4 3′UTR luciferase reporter” value (Slc6a4 3′UTR) is reported as “approximately 30%”, the “repression with Slc6a4 3′UTR mutated in miR-135 seed match” value (Slc6a4 3′UTR) is reported as “fully blocked” and the “seed matches through which Htr1a 3′UTR is repressed” value (Htr1a 3′UTR) is reported as “via the distal and not the proximal seed match”. The “repression of Htr1a 3′UTR luciferase reporter” value (Htr1a 3′UTR) was “approximately 30%”.

In the case of “miR-135b: microRNA over-expressed from plasmid or neuron-specific lentivirus (pre-miR-135b); SEQ ID NO: 26 (AGUGUAUCCUUACUUUUCGGUAU; listed as Mus musculus)”, the “repression of Slc6a4 3′UTR luciferase reporter” value (Slc6a4 3′UTR) is reported as “approximately 50%”, the “repression with Slc6a4 3′UTR mutated in miR-135 seed match” value (Slc6a4 3′UTR) is reported as “fully blocked” and the “induction of miR-135b levels in RN” value (miR-135b [4]) is reported as 10 fold. For the same molecule, the “immobility time, tail suspension test” value (mice [1]; lentiviral miR-135b over-expression in RN, after chronic social defeat, last 5 min) was “reduced immobility time”, the home cage locomotion (mice [5]) was “without any observed change” and the “seed matches through which Htr1a 3′UTR is repressed” value (Htr1a 3′UTR) was “via both predicted sites”. For the same molecule, the “repression of Htr1a 3′UTR luciferase reporter” value (Htr1a 3′UTR) was “approximately 50%” and the “immobility time, forced swim test” value (mice [3]; lentiviral miR-135b over-expression in RN, after chronic social defeat) was “reduced immobility time”.

B1: miR-335: microRNA over-expressed from a vector (nucleic acid, listed as Homo sapiens)
chain 1: UGUUUUGAGCGGGGGUCAAGAGCAAUAACGAAAAAUGUUUGUCAUAAACCGUUUUUCAUUAUUGCUCCUGACCUCCUCUCAUUUGCUAUAUUCA
chain 2: UCAAGAGCAAUAACGAAAAAUGU
With B1 the “repression of Htr1a 3′UTR luciferase reporter” value (Htr1a 3′UTR) was “significant repression”.

B2: miR-182: pre-mmu-miR-182 over-expression in pEGFP plasmid or lentiviruses (nucleic acid, listed as Homo sapiens)
chain 1: GAGCUGCUUGCCUCCCCCCGUUUUUGGCAAUGGUAGAACUCACACUGGUGAGGUAACAGGAUCCGGUGGUUCUAGACUUGCCAACUAUGGGGCGAGGACUCAGCCGGCAC
chain 2: UUUGGCAAUGGUAGAACUCACACCG
With B2 the “effect on L1cam 3′UTR luciferase” value (L1cam 3′UTR; N2a cells) was “represoric effect”, the “effect on L1cam 3′UTR with mutated seed match” value (L1cam 3′UTR; mutated 3′UTR) was “abolished” and the “repression of Htr1a 3′UTR luciferase reporter” value (Htr1a 3′UTR) was “strong repression”. For the same molecule, the “miR-182 levels in infected cells” value (miR-182) was “increased miR-182 levels”, the “effect on Dscam 3′UTR luciferase” value (Dscam 3′UTR) was “represoric effect” and the “effect on Tsnax 3′UTR luciferase” value (Tsnax 3′UTR; N2a cells) was “represoric effect”. The “effect on Tsnax 3′UTR with mutated seed match” value (Tsnax 3′UTR; mutated 3′UTR) was “abolished”.
